Assay results: patent publication US10357438B2, “Metal salt compositions” (Colgate-Palmolive Company, priority 2014, dated 2019)

Each substance was assayed on five species, planktonic mix of representative oral species (Actinomyces viscosus, Lactobacillus casei, Streptococcus oralis, Fusobacterium nucleatum, and …) (assay: Resazurin bacterial inhibition assay). Conditions: 1% elemental Zn final concentration; 1 h incubation; resazurin fluorescence.
Format: cell-based
From the text: The antibacterial activity of the Zn2CitCl (dizinc citrate chloride) complex was compared against zinc citrate (ZnCit) using the resazurin bacterial inhibition assay. In order to test this hypothesis, we used an assay we have developed based on the metabolic indicator dye resazurin. […] A five species, planktonic mix of representative oral species is used in this assay (Actinomyces viscosus, Lactobacillus casei, Streptococcus oralis, Fusobacterium nucleatum, and Veillonella parvula). Bacteria are incubated with the test solution for 1 h prior to staining with 50 μg/ml of resazurin solution. When viable, metabolically active bacteria are incubated with resazurin, the blue, non-fluorescent dye is reduced by the bacteria to the pink fluorescent dye resrufin. Fluorescence of test samples are read at 560 nm excitation/590 nm emission and compared to the fluorescence of standard mixes of live and dead bacteria to determine the percentage of the initial population that remained viable following treatment. Samples were tested at a final concentration of 1% elemental Zn for each compound indicated.

Row | Substance | % viability
1 | basic sodium dizinc citrate chloride | 3.3%
2 | basic sodium zinc citrate | 7.0%
3 | sodium zinc citrate | 5.9%
